How the values were obtained:
[1] = Oral bioavailability in Sprague-Dawley rat at 5 mg/kg measured after 0.083 to 24 hrs by LC-MS analysis; type: ADME, organism-based; settings: in vivo, time 0.083-24 hrs
[2] = Half life in Sprague-Dawley rat at 1 mg/kg, iv measured after 0.083 to 24 hrs by LC-MS analysis; type: ADME, organism-based; settings: in vivo, time 0.083-24 hrs
[3] = Cytotoxicity against human MT4 cells assessed as reduction in cell viability by MTT assay; type: toxicity, cell-based
[4] = tested on: Human immunodeficiency virus 1; assay: Antiviral activity against HIV-1 IIIB harboring reverse transcriptase K103N mutant infected in human MT4 cells by MTT assay; type: functional, organism-based; settings: Human immunodeficiency virus 1, IIIB
[5] = tested on: Human immunodeficiency virus 1; assay: Antiviral activity against HIV-1 IIIB harboring reverse transcriptase Y181C mutant infected in human MT4 cells by MTT assay; type: functional, organism-based; settings: Human immunodeficiency virus 1, IIIB
[6] = target: Voltage-gated inwardly rectifying potassium channel KCNH2 (Homo sapiens, UniProt Q12809); assay: Inhibition of human ERG potassium channel transfected in CHO cells by automated patch clamp assay; type: toxicity, cell-based
Chain of Voltage-gated inwardly rectifying potassium channel KCNH2 (Q12809 whole entry): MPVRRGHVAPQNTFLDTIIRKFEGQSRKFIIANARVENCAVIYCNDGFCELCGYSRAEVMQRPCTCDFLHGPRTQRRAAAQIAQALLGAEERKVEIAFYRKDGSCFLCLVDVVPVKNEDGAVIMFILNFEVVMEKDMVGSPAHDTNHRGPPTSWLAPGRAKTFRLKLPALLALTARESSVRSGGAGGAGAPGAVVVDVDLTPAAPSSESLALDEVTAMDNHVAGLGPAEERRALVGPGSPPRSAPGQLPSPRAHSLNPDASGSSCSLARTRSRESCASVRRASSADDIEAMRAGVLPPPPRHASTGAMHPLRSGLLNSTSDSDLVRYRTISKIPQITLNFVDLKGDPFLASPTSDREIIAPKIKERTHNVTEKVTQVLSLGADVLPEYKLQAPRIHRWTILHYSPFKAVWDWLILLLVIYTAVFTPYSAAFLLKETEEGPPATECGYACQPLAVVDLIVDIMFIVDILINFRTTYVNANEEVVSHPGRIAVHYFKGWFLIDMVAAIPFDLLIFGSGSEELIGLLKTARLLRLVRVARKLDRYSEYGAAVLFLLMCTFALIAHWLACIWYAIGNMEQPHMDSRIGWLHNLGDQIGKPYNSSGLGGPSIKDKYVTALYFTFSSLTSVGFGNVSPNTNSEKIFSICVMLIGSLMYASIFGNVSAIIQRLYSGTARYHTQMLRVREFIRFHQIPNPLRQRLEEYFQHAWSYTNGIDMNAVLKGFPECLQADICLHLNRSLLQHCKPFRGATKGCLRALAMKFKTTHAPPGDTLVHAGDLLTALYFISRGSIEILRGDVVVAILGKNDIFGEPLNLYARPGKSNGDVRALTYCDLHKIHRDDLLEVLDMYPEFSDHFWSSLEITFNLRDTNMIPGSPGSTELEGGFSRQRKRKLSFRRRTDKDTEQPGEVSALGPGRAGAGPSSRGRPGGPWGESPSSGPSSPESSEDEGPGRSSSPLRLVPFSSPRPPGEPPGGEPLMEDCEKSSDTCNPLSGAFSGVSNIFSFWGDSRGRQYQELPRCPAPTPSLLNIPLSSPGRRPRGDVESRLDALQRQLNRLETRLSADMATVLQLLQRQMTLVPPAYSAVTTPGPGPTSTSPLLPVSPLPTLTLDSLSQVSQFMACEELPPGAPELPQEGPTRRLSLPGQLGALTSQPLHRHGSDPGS

Cytochrome P450 2C9 = Cytochrome P450 2C9 (Homo sapiens, UniProt P11712); assay: Inhibition of CYP2C9 in human liver microsomes using diclofenac as substrate incubated for 15 to 45 mins in presence of NADPH
Chain of Cytochrome P450 2C9 (P11712 whole entry): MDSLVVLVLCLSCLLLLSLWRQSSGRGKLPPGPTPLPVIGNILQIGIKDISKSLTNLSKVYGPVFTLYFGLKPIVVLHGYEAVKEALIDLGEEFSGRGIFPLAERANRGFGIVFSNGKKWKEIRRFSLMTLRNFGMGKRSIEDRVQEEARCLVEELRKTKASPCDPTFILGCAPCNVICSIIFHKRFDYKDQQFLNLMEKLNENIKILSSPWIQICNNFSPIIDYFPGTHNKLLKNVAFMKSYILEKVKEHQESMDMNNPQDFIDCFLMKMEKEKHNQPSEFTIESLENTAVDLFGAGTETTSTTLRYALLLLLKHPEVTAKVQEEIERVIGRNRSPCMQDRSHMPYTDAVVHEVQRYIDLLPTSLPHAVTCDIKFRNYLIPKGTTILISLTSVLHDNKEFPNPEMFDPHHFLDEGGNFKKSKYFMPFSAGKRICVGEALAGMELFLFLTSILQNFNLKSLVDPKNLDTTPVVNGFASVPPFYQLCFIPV

Cytochrome P450 2C19 = Cytochrome P450 2C19 (Homo sapiens, UniProt P33261); assay: Inhibition of CYP2C19 in human liver microsomes using S-mephenytoin as substrate incubated for 15 to 45 mins in presence of NADPH
Chain of Cytochrome P450 2C19 (P33261 whole entry): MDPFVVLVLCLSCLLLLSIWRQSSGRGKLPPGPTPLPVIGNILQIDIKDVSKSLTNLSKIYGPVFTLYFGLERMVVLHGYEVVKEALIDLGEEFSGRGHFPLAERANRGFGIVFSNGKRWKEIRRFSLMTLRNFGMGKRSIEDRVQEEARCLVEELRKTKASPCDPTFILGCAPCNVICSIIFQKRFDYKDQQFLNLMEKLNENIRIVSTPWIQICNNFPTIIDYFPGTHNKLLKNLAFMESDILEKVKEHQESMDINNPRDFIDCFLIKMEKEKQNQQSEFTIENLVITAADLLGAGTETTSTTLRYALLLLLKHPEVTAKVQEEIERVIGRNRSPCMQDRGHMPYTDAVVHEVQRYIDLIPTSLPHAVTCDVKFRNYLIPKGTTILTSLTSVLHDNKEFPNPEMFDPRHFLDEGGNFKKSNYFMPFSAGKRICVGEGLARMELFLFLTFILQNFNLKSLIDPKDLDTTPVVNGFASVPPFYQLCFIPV

Cytochrome P450 2D6 = Cytochrome P450 2D6 (Homo sapiens, UniProt P10635); assay: Inhibition of CYP2D6 in human liver microsomes using dextromethorphan as substrate incubated for 15 to 45 mins in presence of NADPH
Chain of Cytochrome P450 2D6 (P10635 whole entry): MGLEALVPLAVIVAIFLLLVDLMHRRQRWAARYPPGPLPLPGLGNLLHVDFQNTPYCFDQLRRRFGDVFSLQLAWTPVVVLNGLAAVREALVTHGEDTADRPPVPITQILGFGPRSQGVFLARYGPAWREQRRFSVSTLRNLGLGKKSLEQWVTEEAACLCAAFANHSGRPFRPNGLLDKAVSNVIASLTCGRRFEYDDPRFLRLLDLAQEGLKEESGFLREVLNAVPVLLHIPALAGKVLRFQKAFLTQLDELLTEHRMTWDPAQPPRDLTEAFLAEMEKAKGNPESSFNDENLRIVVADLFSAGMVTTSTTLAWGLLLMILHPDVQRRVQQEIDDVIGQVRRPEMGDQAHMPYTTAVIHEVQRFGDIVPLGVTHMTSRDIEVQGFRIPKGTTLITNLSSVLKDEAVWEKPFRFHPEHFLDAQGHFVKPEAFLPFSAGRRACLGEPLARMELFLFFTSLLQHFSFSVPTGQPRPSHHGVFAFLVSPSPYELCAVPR

Cytochrome P450 3A4 = Cytochrome P450 3A4 (Homo sapiens, UniProt P08684); assay: Inhibition of CYP3A4 in human liver microsomes using midazolam as substrate incubated for 15 to 45 mins in presence of NADPH
Chain of Cytochrome P450 3A4 (P08684 whole entry): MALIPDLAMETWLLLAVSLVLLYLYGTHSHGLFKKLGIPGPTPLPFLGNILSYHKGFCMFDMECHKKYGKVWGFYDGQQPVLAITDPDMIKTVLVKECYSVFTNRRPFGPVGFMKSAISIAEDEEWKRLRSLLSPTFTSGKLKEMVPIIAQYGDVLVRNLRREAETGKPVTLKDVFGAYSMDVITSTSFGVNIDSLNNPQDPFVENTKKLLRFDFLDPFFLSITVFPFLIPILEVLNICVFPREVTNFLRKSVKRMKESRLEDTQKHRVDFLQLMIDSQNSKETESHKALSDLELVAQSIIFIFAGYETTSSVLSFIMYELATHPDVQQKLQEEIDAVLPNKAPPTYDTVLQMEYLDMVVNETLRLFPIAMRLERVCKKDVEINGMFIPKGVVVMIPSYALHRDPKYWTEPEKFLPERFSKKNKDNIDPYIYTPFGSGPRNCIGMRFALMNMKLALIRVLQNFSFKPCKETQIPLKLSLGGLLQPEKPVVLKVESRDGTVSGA

hERG (KCNH2) = hERG (KCNH2) (Homo sapiens, UniProt Q12809); assay: Inhibition of human ERG potassium channel transfected in CHO cells at 40 uM by automated patch clamp assay; type: toxicity, cell-based; settings: CHO cells transfected with hERG
Chain of hERG (KCNH2) (Q12809 whole entry): as the sequence (Q12809 whole entry) above

[7] = Half life in Sprague-Dawley rat at 5 mg/kg, po measured after 0.083 to 24 hrs by LC-MS analysis; type: ADME, organism-based; settings: in vivo, time 0.083-24 hrs
[8] = Tmax in Sprague-Dawley rat at 1 mg/kg, iv measured after 0.083 to 24 hrs by LC-MS analysis; type: ADME, organism-based; settings: in vivo, time 0.083-24 hrs
[9] = Tmax in Sprague-Dawley rat at 5 mg/kg, po measured after 0.083 to 24 hrs by LC-MS analysis; type: ADME, organism-based; settings: in vivo, time 0.083-24 hrs
[10] = Cmax in Sprague-Dawley rat at 1 mg/kg, iv measured after 0.083 to 24 hrs by LC-MS analysis; type: ADME, organism-based; set-up: time upper 24 hrs, dose 1 mg/kg, time lower 0.083 hrs, route iv; settings: in vivo
[11] = Cmax in Sprague-Dawley rat at 5 mg/kg, po measured after 0.083 to 24 hrs by LC-MS analysis; type: ADME, organism-based; set-up: dose 5 mg/kg, time 0.083-24 hrs, route po; settings: in vivo
[12] = AUC (0 to t) in Sprague-Dawley rat at 1 mg/kg, iv measured after 0.083 to 24 hrs by LC-MS analysis; type: ADME, organism-based; set-up: time upper 24 hrs, dose 1 mg/kg, time lower 0.083 hrs, route iv; settings: in vivo
[13] = AUC (0 to t) in Sprague-Dawley rat at 5 mg/kg, po measured after 0.083 to 24 hrs by LC-MS analysis; type: ADME, organism-based; set-up: dose 5 mg/kg, time upper 24 hrs, time lower 0.083 hrs, route po; settings: in vivo
[14] = AUC (0 to infinity) in Sprague-Dawley rat at 1 mg/kg, iv measured after 0.083 to 24 hrs by LC-MS analysis; type: ADME, organism-based; set-up: dose 1 mg/kg, time 0.083-24 hrs, route iv; settings: in vivo
[15] = AUC (0 to infinity) in Sprague-Dawley rat at 5 mg/kg, po measured after 0.083 to 24 hrs by LC-MS analysis; type: ADME, organism-based; set-up: time upper 24 hrs, dose 5 mg/kg, time lower 0.083 hrs, route po; settings: in vivo
[16] = MRT (0 to infinity) in Sprague-Dawley rat at 5 mg/kg, po measured after 0.083 to 24 hrs by LC-MS analysis; type: ADME, organism-based; settings: in vivo, time 0.083-24 hrs
[17] = Clearance in Sprague-Dawley rat at 1 mg/kg, iv measured after 0.083 to 24 hrs by LC-MS analysis; type: ADME, organism-based; settings: in vivo, time 0.083-24 hrs
[18] = Clearance in Sprague-Dawley rat at 5 mg/kg, po measured after 0.083 to 24 hrs by LC-MS analysis; type: ADME, organism-based; settings: in vivo, time 0.083-24 hrs
[19] = Acute toxicity in 12 hr fasted male CD-1(ICR) mouse assessed as animal death at 2 g/kg, IG administered as single dose measured after 14 days; settings: in vivo, po, 2000 mg/kg, 336 h, time 14 day
[20] = Acute toxicity in 12 hr fasted female CD-1(ICR) mouse assessed as changes in body weight at 2 g/kg, IG administered as single dose measured after 14 days; settings: in vivo, po, 2000 mg/kg, 336 h, time 14 day
[21] = Acute toxicity in 12 hr fasted male CD-1(ICR) mouse assessed as behavioral abnormalities at 2 g/kg, IG administered as single dose measured after 14 days; settings: in vivo, po, 2000 mg/kg, 336 h, time 14 day
[22] = Acute toxicity in 12 hr fasted female CD-1(ICR) mouse assessed as behavioral abnormalities at 2 g/kg, IG administered as single dose measured after 14 days; settings: in vivo, po, 2000 mg/kg, 336 h, time 14 day
[23] = Acute toxicity in 12 hr fasted male CD-1(ICR) mouse assessed as pathological damage in liver at 2 g/kg, IG administered as single dose measured after 14 days by H and E staining based analysis; type: tissue-based; settings: in vivo, po, 2000 mg/kg, 336 h, time 14 day
[24] = Acute toxicity in 12 hr fasted male CD-1(ICR) mouse assessed as pathological damage in heart at 2 g/kg, IG administered as single dose measured after 14 days by H and E staining based analysis; type: tissue-based; settings: in vivo, po, 2000 mg/kg, 336 h, time 14 day
[25] = Acute toxicity in 12 hr fasted female CD-1(ICR) mouse assessed as pathological damage in heart at 2 g/kg, IG administered as single dose measured after 14 days by H and E staining based analysis; type: tissue-based; settings: in vivo, po, 2000 mg/kg, 336 h, time 14 day
[26] = Acute toxicity in 12 hr fasted male CD-1(ICR) mouse assessed as pathological damage in brain at 2 g/kg, IG administered as single dose measured after 14 days by H and E staining based analysis; type: tissue-based; settings: in vivo, po, 2000 mg/kg, 336 h, time 14 day
[27] = Acute toxicity in 12 hr fasted male CD-1(ICR) mouse assessed as pathological damage in spleen at 2 g/kg, IG administered as single dose measured after 14 days by H and E staining based analysis; type: tissue-based; settings: in vivo, po, 2000 mg/kg, 336 h, time 14 day
[28] = Acute toxicity in 12 hr fasted female CD-1(ICR) mouse assessed as pathological damage in spleen at 2 g/kg, IG administered as single dose measured after 14 days by H and E staining based analysis; type: tissue-based; settings: in vivo, po, 2000 mg/kg, 336 h, time 14 day
[29] = Acute toxicity in 12 hr fasted male CD-1(ICR) mouse assessed as pathological damage in kidney at 2 g/kg, IG administered as single dose measured after 14 days by H and E staining based analysis; type: tissue-based; settings: in vivo, po, 2000 mg/kg, 336 h, time 14 day
[30] = Acute toxicity in 12 hr fasted female CD-1(ICR) mouse assessed as pathological damage in kidney at 2 g/kg, IG administered as single dose measured after 14 days by H and E staining based analysis; type: tissue-based; settings: in vivo, po, 2000 mg/kg, 336 h, time 14 day
in vitro = settings: human, MT4 cells
Description: Selectivity index, ratio of CC50 for cytotoxicity against human MT4 cells to EC50 for antiviral activity against wild type HIV-1 IIIB infected in human MT4 cells

[31] = tested on: Human immunodeficiency virus 1; assay: microbe, parasite or virus in culture; settings: Human immunodeficiency virus 1, IIIB, MT4
Description: Antiviral activity against wild type HIV-1 IIIB infected in human MT4 cells assessed as protection against virus-induced cytopathic effect by MTT assay

[32] = tested on: Human immunodeficiency virus 1; assay: microbe, parasite or virus in culture; settings: Human immunodeficiency virus 1, IIIB, MT4; remark: listed apart in the source
Description: Antiviral activity against HIV-1 IIIB harboring reverse transcriptase Y188L mutant infected in human MT4 cells by MTT assay

SMILES: COc1cc(-c2ccc(C#N)cc2)ccc1Oc1cc(N)nc(Nc2ccc(C#N)cc2)n1
- bioavailability [1]: 7.57%
- half-life [2]: 60 min
- CC50 [3]: 120 µM
- EC50 [4]: 4 nM
- EC50 [5]: 29 nM
- IC50 [6]: > 40 µM
- IC50 (Cytochrome P450 2C9): 5.16 µM
- IC50 (Cytochrome P450 2C19): 4.51 µM
- IC50 (Cytochrome P450 2D6): > 50 µM
- IC50 (Cytochrome P450 3A4): > 50 µM
- inhibition at 40 µM (hERG (KCNH2)): 35.9%
- half-life [7]: 140 min
- Tmax [8]: 4.8 min
- Tmax [9]: 49.8 min
- Cmax [10]: 329 ng/mL
- Cmax [11]: 44.8 ng/mL
- AUC(0-t) [12]: 326 ng·h/mL
- AUC(0-t) [13]: 116 ng·h/mL
- AUC(0-inf) [14]: 329 ng·h/mL
- AUC(0-inf) [15]: 124 ng·h/mL
- MRT inf [16]: 2.89 h
- clearance [17]: 51.6 mL/min/kg
- CL/F [18]: 675 mL/min/kg
- Activity [19]: Non-Toxic
- Activity [20]: Non-Toxic
- Activity [21]: Non-Toxic
- Activity [22]: Non-Toxic
- Activity [23]: Non-Toxic
- Activity [24]: Non-Toxic
- Activity [25]: Non-Toxic
- Activity [26]: Non-Toxic
- Activity [27]: Non-Toxic
- Activity [28]: Non-Toxic
- Activity [29]: Non-Toxic
- Activity [30]: Non-Toxic
- selectivity ratio (in vitro): 63400
- EC50 [31]: 1.9 nM
- EC50 [32]: 570 nM

From ChEMBL document CHEMBL5131537 (J Med Chem, 2022)
